64 molecules from patent US12642270B2, “Substituted thiophene carboxamides, thiophene carboxylic acids and derivatives thereof” (Bayer Aktiengesellschaft, priority 2019, dated 2026) can be followed below.

The data set in a line: Log P by HPLC on reversed phase columns (EEC directive 79/831 Annex V.A8). The format is physicochemical. To be noted: method marked [a]. A digest of the protocol:
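Values come from retention times calibrated against alkan-2-ones (3–16 carbons) by linear interpolation, using reversed-phase LC-UV per EEC directive 79/831 Annex V.A8. Acetonitrile gradient 10–95% with 0.1% formic acid [a], 0.001 M ammonium acetate [b] or 0.1% phosphoric acid [c]; several values within one method separated by "+".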

`COC(=O)C1(NC(=O)c2sc(C#N)c(Br)c2C)CCC1` [1.0680]: the LogP was 2.71^[a].

In the case of `COC(=O)CNC(=O)c1sc(Cl)c(Cl)c1C#N` [1.0681], the LogP was 2.17^[a].

With `COC(=O)C1(NC(=O)c2sc(Cl)c(Cl)c2C#N)CC1` [1.0682], the LogP is 2.33^[a].

For the molecule `CCOC(=O)C1(NC(=O)c2sc(C#N)c(Cl)c2Br)CCC1` [1.0683], the LogP is 3.34^[a].

Consider `COC(=O)C(C)(C)NC(=O)c1sc(Cl)c(Cl)c1C#N` [1.0684], for which the LogP is 2.73^[a].

Take `CCOC(=O)C(Cc1ccccc1)NC(=O)c1sc(Cl)c(Cl)c1C#N` (stereo not shown) [1.0685]: the LogP was 3.98^[a].

For the molecule `COC(=O)C1(NC(=O)c2sc(Cl)c(Cl)c2C#N)CCC1` [1.0686], the LogP was 2.79^[a].

Turning to `CCOC(=O)C1(NC(=O)c2sc(Cl)c(Cl)c2C#N)CCC1` [1.0687], the LogP is 3.16^[a].

For `N#CCNC(=O)c1sc(Cl)c(Cl)c1C#N` [1.0688], the LogP was 2.04^[a].

As to `CCOC(=O)CNC(=O)c1sc(Br)c(C#N)c1Cl` [1.0689], the LogP was 2.57^[a].

For `COC(=O)CNC(=O)c1sc(Br)c(C#N)c1Cl` [1.0690], the LogP is 2.19^[a].

Turning to `CCOC(=O)C1(NC(=O)c2sc(Br)c(C#N)c2Cl)CC1` [1.0691], the LogP was 2.71^[a].

Regarding `COC(=O)C1(NC(=O)c2sc(Br)c(C#N)c2Cl)CC1` [1.0692], the LogP was 2.37^[a].

For `COC(=O)C(C)(C)NC(=O)c1sc(Br)c(C#N)c1Cl` [1.0693], the LogP was 2.84^[a].

For `CCOC(=O)C(NC(=O)c1sc(Br)c(C#N)c1Cl)C(C)C` (stereo not shown) [1.0694], the LogP was 3.83^[a].

With `COC(=O)C(NC(=O)c1sc(Cl)c(Cl)c1C#N)C1CC1` (stereo not shown) [1.0695], the LogP is 2.89^[a].

Turning to `CCOC(=O)CNC(=O)c1sc(F)c(Br)c1Br` [1.0697], the LogP was 3.01^[a].

For `COC(=O)CNC(=O)c1sc(F)c(Br)c1Br` [1.0698], the LogP was 2.60^[a].

As to `O=C(NC1(C(=O)O)CC1)c1cc(Br)c(C(F)(F)F)s1` [1.0700], the LogP was 2.44^[a].

As to `CCOC(=O)C(C)(C)NC(=O)c1sc(Cl)c(Br)c1Br` [1.0701], the LogP is 4.30^[a].

Turning to `O=C(NC1(C(=O)O)CC1)c1sc(Cl)c(Br)c1F` [1.0702], the LogP is 2.15^[a].

Regarding `O=C(NC1(C(=O)O)CC1)c1sc(Br)c(Cl)c1F` [1.0703], the LogP is 2.14^[a].

Take `CCCOC(=O)C1(NC(=O)c2sc(Br)c(Cl)c2C)CC1` [1.0704]: the LogP is 3.62^[a].

As for `Cc1c(C(=O)NC2(C(=O)OC3CCC3)CCC2)sc(Br)c1Cl` [1.0705], the LogP is 4.33^[a].

On to `CCOC(=O)C1(NC(=O)c2sc(F)c(Br)c2Br)CC1` [1.0706], for which the LogP is 3.17^[a].

On to `COC(=O)C1(NC(=O)c2sc(F)c(Br)c2Br)CC1` [1.0707], for which the LogP was 2.76^[a].

For `COC(=O)C(C)(C)NC(=O)c1sc(F)c(Br)c1Br` [1.0708], the LogP is 3.38^[a].

For the molecule `CCOC(=O)C(NC(=O)c1sc(F)c(Br)c1Br)C(C)C` (stereo not shown) [1.0709], the LogP is 4.48^[a].

As to `COC(=O)C(NC(=O)c1sc(F)c(Br)c1Br)C1CC1` (stereo not shown) [1.0710], the LogP was 3.55^[a].

Consider `CCOC(=O)C(Cc1ccccc1)NC(=O)c1sc(F)c(Br)c1Br` (stereo not shown) [1.0711], for which the LogP was 4.67^[a].

For `COC(=O)C1(NC(=O)c2sc(F)c(Br)c2Br)CCC1` [1.0712], the LogP is 3.41^[a].

For the molecule `CCOC(=O)C1(NC(=O)c2sc(F)c(Br)c2Br)CCC1` [1.0713], the LogP was 3.88^[a].

Turning to `N#CCNC(=O)c1sc(F)c(Br)c1Br` [1.0714], the LogP is 2.39^[a].

Turning to `CCOC(=O)CNC(=O)c1cc(Br)c(C(F)(F)F)s1` [1.0715], the LogP is 3.00^[a].

On to `COC(=O)CNC(=O)c1cc(Br)c(C(F)(F)F)s1` [1.0716], for which the LogP is 2.65^[a].

In the case of `COC(=O)C1(NC(=O)c2cc(Br)c(C(F)(F)F)s2)CC1` [1.0717], the LogP was 2.87^[a].

Regarding `COC(=O)C(C)(C)NC(=O)c1cc(Br)c(C(F)(F)F)s1` [1.0718], the LogP was 3.23^[a].

For the molecule `CCOC(=O)C(NC(=O)c1cc(Br)c(C(F)(F)F)s1)C(C)C` (stereo not shown) [1.0719], the LogP was 4.18^[a].

For the molecule `COC(=O)C(NC(=O)c1cc(Br)c(C(F)(F)F)s1)C1CC1` (stereo not shown) [1.0720], the LogP is 3.41^[a].

As for `CCOC(=O)C(Cc1ccccc1)NC(=O)c1cc(Br)c(C(F)(F)F)s1` (stereo not shown) [1.0721], the LogP was 4.36^[a].

For the molecule `COC(=O)C1(NC(=O)c2cc(Br)c(C(F)(F)F)s2)CCC1` [1.0722], the LogP was 3.33^[a].

For the molecule `CCOC(=O)C1(NC(=O)c2cc(Br)c(C(F)(F)F)s2)CCC1` [1.0723], the LogP was 3.70^[a].

On to `N#CCNC(=O)c1cc(Br)c(C(F)(F)F)s1` [1.0724], for which the LogP was 2.61^[a].

For `Cc1c(C(=O)NC2(C(=O)OC3CCC3)CCC2)sc(Cl)c1Br` [1.0725], the LogP was 4.37^[a].

Regarding `CCOC(=O)C1(NC(=O)c2cc(Br)c(C(F)(F)F)s2)CC1` [1.0726], the LogP was 3.22^[a].

In the case of `CCOC(=O)C1(NC(=O)c2sc(Cl)c(Cl)c2Br)CSC1` [1.0727], the LogP was 3.95^[a].

With `CCOC(=O)C1(NC(=O)c2sc(Br)c(Br)c2Cl)CSC1` [1.0728], the LogP was 3.97^[a].

As for `COC(=O)[C@H](CCSC)NC(=O)c1sc(C#N)c(Br)c1C` [1.0729], the LogP was 3.03^[a].

With `COC(=O)[C@H](CCSC)NC(=O)c1sc(C#N)c(Cl)c1C` [1.0730], the LogP was 2.97^[a].

In the case of `CCOC(=O)C(CO)NC(=O)c1sc(C#N)c(Br)c1Br` (stereo not shown) [1.0731], the LogP is 2.62^[a].

In the case of `CCOC(=O)C(CCSC)NC(=O)c1sc(C#N)c(Br)c1Br` (stereo not shown) [1.0732], the LogP is 3.81^[a].

As to `COC(=O)C(CCSC)NC(=O)c1sc(C#N)c(Br)c1Br` (stereo not shown) [1.0733], the LogP is 3.23^[a].

As to `COC(=O)[C@H](CCSC)NC(=O)c1sc(C#N)c(Br)c1Br` [1.0734], the LogP is 3.40^[a].

Turning to `COC(=O)C(CCSC)NC(=O)c1sc(Cl)c(Br)c1C` (stereo not shown) [1.0735], the LogP was 3.63^[a].

Consider `CCOC(=O)[C@H](CCSC)NC(=O)c1sc(Cl)c(Br)c1C` [1.0736], for which the LogP is 4.02^[a].

Consider `CNC(=O)CNC(=O)c1sc(Br)c(Br)c1F` [1.0737], for which the LogP is 1.81^[a].

For the molecule `CNC(=O)CNC(=O)c1sc(Cl)c(Cl)c1Br` [1.0738], the LogP was 2.08^[a].

Consider `CCOC(=O)CNC(=O)c1sc(C#N)c(Br)c1Br` [1.0739], for which the LogP was 2.75^[a].

As for `CCOC(=O)C1(NC(=O)c2sc(C#N)c(Br)c2Br)CC1` [1.0740], the LogP is 3.02^[a].

Consider `CCOC(=O)C(C#N)NC(=O)c1sc(Br)c(Br)c1Cl` (stereo not shown) [1.0741], for which the LogP is 3.34^[a].

`CCOC(=O)C(C#N)NC(=O)c1sc(C#N)c(Br)c1C` (stereo not shown) [1.0742]: the LogP is 2.66^[a].

Consider `CCOC(=O)C(C#N)NC(=O)c1sc(Cl)c(Cl)c1Br` (stereo not shown) [1.0743], for which the LogP is 3.35^[a].

As for `CCOC(=O)C(C#N)NC(=O)c1sc(Cl)c(Br)c1Br` (stereo not shown) [1.0744], the LogP is 3.38^[a].

In the case of `N#CCNC(=O)c1sc(Cl)c(Cl)c1C(F)F` [1.0745], the LogP is 2.50^[a].
